Measurements: patent publication US12090149B2, “SMAD3 inhibitors” (Moexa Pharmaceuticals Limited, priority 2018, dated 2024)
pIC50: −log10 of the molar value. Values joined by “and” are separate entries in the source; they are usually repeats but may differ in a detail not shown here. Equal entries are not always repeated.

Assays:
[1] = test system: TGFβ/Smad Signaling Pathway SBE Reporter—HEK293 Cell Line; test: TGFβ/Smad SBE reporter luciferase assay in HEK293 cells stimulated with human TGFβ1; format: cell-based; conditions: Homo sapiens, 4 h compound, then TGFβ1 20 ng/ml ~18 h
Experimental: • 1. TGFβ/Smad Signaling Pathway SBE Reporter—HEK293 Cell Line BPS Bioscience Catalog #: 60653 • 2. Human TGFβ1 (BPS Bioscience #90900-1) • 3. SIS3 (Sigma #S0447): inhibitor of TGFβ pathway. Prepare stock soln. in DMSO • 4. Growth medium: MEM medium (Invitrogen #11095-080)+10% FBS (ATCC #30-2020)+1% non-essential amino acids (Lonza #13-114E)+1 mM Na pyruvate (Lonza #13-115E)+1% Penicillin/Streptomycin (ATCC #30-2300)+400 μg/ml of Geneticin (Invitrogen #11811-031) • 5. Assay medium: MEM medium+0.5% FBS+1% non-essential amino acids+1 mM Na pyruvate+1% Pen/Strep • 6. 96-well tissue culture-treated white clear-bottom assay plate (Corning #3610) • 7. ONE-Step™ Luciferase Assay System (BPS, Cat. #60690)
SBE reporter-HEK293 cells were harvested from culture in growth medium and seeded at a density of ˜10,000 cells per well into a white clear-bottom 96-well microplate in 100 μl of assay medium. The plate containing cells was incubated at 37° C. in a CO2 incubator. 24 h after seeding, cells were washed with 100 μL of assay buffer and treated with three-fold serial dilution of compounds in 50 μl assay medium. […]
After 18 h of incubation, Luciferase assay was performed using ONE-Step™ Luciferase Assay System according to the protocol provided: 50 μl of ONE-Step™ Luciferase reagent was added per well and shook at room temperature for […]. Luminescence was measured using a luminometer.

B16-F10 syngeneic model = test: Subcutaneous B16-F10 syngeneic model, tumor growth; format: in vivo, C57BL/6 mice
Experimental: In order to evaluate the in vivo efficacy of SIS3 and novel compounds of the present invention, a study has been conducted in treatment of the subcutaneous B16-F10 syngeneic models.
• Animal species and strain: C57BL/6 mice • History of treatment: Naive • Sex, age and weight: Female, 6-8 weeks • Breeder/supplier: Shanghai SLAC Laboratory Animal Co. Ltd • Adaptation: At least 7 days • Room: SPF Room • Room temperature: 20-26° C. • Room relative humidity: 40-70% • Light cycle: Fluorescent light for 12-hour light (08:00-20:00) and 12-hour dark • Animal hosting: 2-5 mice/cage each group • Food: Free access to food • Water: Free access to water (municipal tap water filtered by reverse osmosis or high-pressure sterilizer)
B16-F10 cell was maintained at 37° C. under 5% CO2 in DMEM medium supplemented with 10% FBS and were subsequently cultured within 10 passages before inoculated into the mice.
B16-F10 cells (3×10^5 in 100 μL of serum-free medium) were inoculated to each of C57BL/6 mice via s.c. under anesthesia by 3-4% isoflurane. Each group contains 15 mice.
When average tumor volume reached 35-60 mm^3, 15 mice were randomized into group 6. The day of inoculation was denoted as day 0.
Tumor dimensions were measured on Day 4, 5, 6, 8, 11, 13, 15 and 18, after inoculation in 2 dimensions with calipers.
When required, tumor volume was measured daily. The tumor volume (V) was calculated as follows: V=(length×width^2)/2.
The individual relative tumor volume (RTV) was calculated as follows: RTV=Vt/V0, where Vt was the volume on each day, and V0 was the volume at the beginning of the treatment.
Tumor growth inhibition (TGI), TGI=(1−(Ti−T0)/(Ci−C0))×100%; Ti and Ci as the mean tumor volumes of the treatment and control groups on the measurement day; T0 and C0 as the mean tumor volumes of the treatment and control groups on day 0
Results were expressed as mean±S.E.M. Comparisons between two groups were made by Dunnett's multi-comparison test, p<0.05 were considered as significant.

COc1cc2c(cc1OC)CN(C(=O)/C=C/c1c(-c3ccccc3)nc3ccccn13)CC2 [Compound 8, (E)-1-(6,7-dimethoxy-3,4-dihydroisoquinolin-2(1H)-yl)-3-(2-phenylimidazo[1,2-a]pyridin-3-yl)prop-2-en-1-one]
pIC50 [1]: 5.45 | Tumor Sizes (mm3) Mean (B16-F10 syngeneic model; 10 mg/kg q.d. * 3W i.p., Day 4 (estimated value)): 0.62 mm3 | Relative tumor volume Mean (B16-F10 syngeneic model; 10 mg/kg q.d. * 3W i.p., Day 4, RTV=Vt/V0): 0.04 | Tumor Sizes (mm3) Mean (B16-F10 syngeneic model; 10 mg/kg q.d. * 3W i.p., Day 5 (estimated value)): 0.75 mm3 | Relative tumor volume Mean (B16-F10 syngeneic model; 10 mg/kg q.d. * 3W i.p., Day 5, RTV=Vt/V0): 0.04 | Tumor Sizes (mm3) Mean (B16-F10 syngeneic model; 10 mg/kg q.d. * 3W i.p., Day 6 (estimated value)): 4.31 mm3 | Relative tumor volume Mean (B16-F10 syngeneic model; 10 mg/kg q.d. * 3W i.p., Day 6, RTV=Vt/V0): 0.19 | Tumor Sizes (mm3) Mean (B16-F10 syngeneic model; 10 mg/kg q.d. * 3W i.p., Day 8): 38.42 mm3 | Relative tumor volume Mean (B16-F10 syngeneic model; 10 mg/kg q.d. * 3W i.p., Day 8, RTV=Vt/V0): 1.00 | Tumor Sizes (mm3) Mean (B16-F10 syngeneic model; 10 mg/kg q.d. * 3W i.p., Day 11): 151.84 mm3 | Relative tumor volume Mean (B16-F10 syngeneic model; 10 mg/kg q.d. * 3W i.p., Day 11, RTV=Vt/V0): 4.80 | Tumor growth inhibition (%) TGI (B16-F10 syngeneic model; 10 mg/kg q.d. * 3W i.p., Day 11, calculated based on tumor volume of Day 8): 29% | Tumor Sizes (mm3) Mean (B16-F10 syngeneic model; 10 mg/kg q.d. * 3W i.p., Day 13): 416.04 mm3 | Relative tumor volume Mean (B16-F10 syngeneic model; 10 mg/kg q.d. * 3W i.p., Day 13, RTV=Vt/V0): 12.93 | Tumor growth inhibition (%) TGI (B16-F10 syngeneic model; 10 mg/kg q.d. * 3W i.p., Day 13, calculated based on tumor volume of Day 8): 30% | Tumor Sizes (mm3) Mean (B16-F10 syngeneic model; 10 mg/kg q.d. * 3W i.p., Day 15): 816.24 mm3 | Relative tumor volume Mean (B16-F10 syngeneic model; 10 mg/kg q.d. * 3W i.p., Day 15, RTV=Vt/V0): 26.76 | Tumor growth inhibition (%) TGI (B16-F10 syngeneic model; 10 mg/kg q.d. * 3W i.p., Day 15, calculated based on tumor volume of Day 8): 23% | Tumor Sizes (mm3) Mean (B16-F10 syngeneic model; 10 mg/kg q.d. * 3W i.p., Day 18): 2500.45 mm3 | Relative tumor volume Mean (B16-F10 syngeneic model; 10 mg/kg q.d. * 3W i.p., Day 18, RTV=Vt/V0): 93.48 | Tumor growth inhibition (%) TGI (B16-F10 syngeneic model; 10 mg/kg q.d. * 3W i.p., Day 18, calculated based on tumor volume of Day 8): 11% | Tumor Sizes (mm3) Mean (B16-F10 syngeneic model; 30 mg/kg q.d. * 3W i.p., Day 4 (estimated value)): 0.36 mm3 | Relative tumor volume Mean (B16-F10 syngeneic model; 30 mg/kg q.d. * 3W i.p., Day 4, RTV=Vt/V0): 0.01 | Tumor Sizes (mm3) Mean (B16-F10 syngeneic model; 30 mg/kg q.d. * 3W i.p., Day 5 (estimated value)): 0.56 mm3 | Relative tumor volume Mean (B16-F10 syngeneic model; 30 mg/kg q.d. * 3W i.p., Day 5, RTV=Vt/V0): 0.01 | Tumor Sizes (mm3) Mean (B16-F10 syngeneic model; 30 mg/kg q.d. * 3W i.p., Day 6 (estimated value)): 5.33 mm3 | Relative tumor volume Mean (B16-F10 syngeneic model; 30 mg/kg q.d. * 3W i.p., Day 6, RTV=Vt/V0): 0.16 | Tumor Sizes (mm3) Mean (B16-F10 syngeneic model; 30 mg/kg q.d. * 3W i.p., Day 8): 47.99 mm3 | Relative tumor volume Mean (B16-F10 syngeneic model; 30 mg/kg q.d. * 3W i.p., Day 8, RTV=Vt/V0): 1.00 | Relative tumor volume Mean (B16-F10 syngeneic model; 30 mg/kg q.d. * 3W i.p., Day 11, RTV=Vt/V0): 3.76 | Tumor growth inhibition (%) TGI (B16-F10 syngeneic model; 30 mg/kg q.d. * 3W i.p., Day 11, calculated based on tumor volume of Day 8): 26% | Tumor Sizes (mm3) Mean (B16-F10 syngeneic model; 30 mg/kg q.d. * 3W i.p., Day 11, listed as MO-00005): 165.30 mm3 and 165.3 mm3 | Tumor Sizes (mm3) Mean (B16-F10 syngeneic model; 30 mg/kg q.d. * 3W i.p., Day 13): 376.62 mm3 | Relative tumor volume Mean (B16-F10 syngeneic model; 30 mg/kg q.d. * 3W i.p., Day 13, RTV=Vt/V0): 10.44 | Tumor Sizes (mm3) Mean (B16-F10 syngeneic model; 30 mg/kg q.d. * 3W i.p., Day 15): 794.11 mm3 | Relative tumor volume Mean (B16-F10 syngeneic model; 30 mg/kg q.d. * 3W i.p., Day 15, RTV=Vt/V0): 21.61 | Tumor Sizes (mm3) Mean (B16-F10 syngeneic model; 30 mg/kg q.d. * 3W i.p., Day 18): 2303.09 mm3 | Relative tumor volume Mean (B16-F10 syngeneic model; 30 mg/kg q.d. * 3W i.p., Day 18, RTV=Vt/V0): 63.87 | Relative tumor volume Mean (B16-F10 syngeneic model; 100 mg/kg q.d. * 3W i.p. (group 6), Day 8, RTV=Vt/V0): 1.00
